Results as given in patent US11083709B2, “Compounds, compositions, and methods of increasing CFTR activity” (Proteostasis Therapeutics, Inc., priority 2015, dated 2021).

What was measured:
ΔF508-CFTR = target: T1, ΔF508-CFTR (Homo sapiens, UniProt P13569, DEL508-508); assay: Ussing measurements, hBEs homozygous for ΔF508; assay type: cell-based; conditions: compound at 10 uM and VX-809 at 3 uM, relative to VX-809 (3 uM); 24 h treatment
T1 construct: primary lung epithelial cells (hBEs) homozygous for the Cystic Fibrosis-causing ΔF508 mutation; endogenous in cells; host or cells: primary lung epithelial cells (hBEs) homozygous for ΔF508
Experimental: As discussed above, Ussing measurements can be used to measure CFTR activity. In this example, primary lung epithelial cells (hBEs) homozygous for the Cystic Fibrosis-causing ΔF508 mutation were differentiated for a minimum of 4 weeks in an air-liquid interface on SnapWell filter plates prior to the Ussing measurements. Cells were apically mucus-washed for 30 minutes prior to treatment with compounds. The basolateral media was removed and replaced with media containing the compound of interest diluted to its final concentration from DMSO stocks. Treated cells were incubated at 37° C. and 5% CO2 for 24 hours. […] The short-circuit current was measured in voltage clamp-mode (Vhold=0 mV), and the entire assay was conducted at a temperature of 36° C.-36.5° C. Once the voltages stabilized, the chambers were clamped, and data was recorded by pulse readings every 5 seconds. Following baseline current stabilization, the following additions were applied and the changes in current and resistance of the cells was monitored: • 1. […]
The inhibitable current (that current that is blocked by CFTRinh-172) is measured as the specific activity of the ΔF508-CFTR channel, and increases in response to compound in this activity over that observed in vehicle-treated samples are identified as the correction of ΔF508-CFTR function imparted by the compound tested. […]

[1] = target: T2, CFTR in F508/F508del HBEs (Homo sapiens, UniProt P13569, DEL508-508); assay: Ussing measurements, F508del/F508del HBEs; assay type: cell-based; conditions: genotype F508del/F508del
T2 construct: Activity in F508/F508del HBEs (relative); endogenous in cells; host or cells: primary lung epithelial cells (HBEs), genotype F508/F508del [sic]
Experimental: As discussed above, Ussing measurements were used to measure CFTR activity. In this method, primary lung epithelial cells (hBEs) with a Cystic fibrosis causing class I mutation were differentiated for a minimum of 4 weeks in an air-liquid interface on SnapWell™ filter plates prior to the Ussing measurements. Cells were apically mucus-washed for 30 minutes prior to treatment with compounds. The basolateral media was removed and replaced with media containing the compound of interest diluted to its final concentration from DMSO or aqueous stocks. Treated cells were incubated at 37° C. and 5% CO2 for 24 hours. At the end of the treatment period, the cells on filters were transferred to the Ussing chamber and equilibrated for 30 minutes. The short-circuit current was measured in voltage clamp-mode (Vhold=0 mV), and the entire assay was conducted at a temperature of 36° C.-36.5° C. Once the voltages stabilized, the chambers were clamped, and data were recorded by pulse readings every 5 seconds. Following baseline current stabilization, the following additions were applied and the changes in current and resistance of the cells were monitored: • 1. Benzamil to the apical chamber to inhibit ENaC sodium channel. • 2. Forskolin to both chambers to activate ΔF508-CFTR by phosphorylation. • 3. Ivacaftor or Genistein to the apical chamber to potentiate ΔF508-CFTR channel opening. • 4. CFTRinh-172 to the apical chamber to inhibit ΔF508-CFTR Cl-conductance.
The forskolin-sensitive current and inhibitable current (that potentiated current that was blocked by CFTRinh-172) were measured as the specific activity of the ΔF508-CFTR channel, and increase in response to compound in this activity over that observed in vehicle-treated samples were identified as the correction of ΔF508-CFTR function imparted by the compound tested.
The results are shown below in Tables 3 and 4. Compound A is 10 uM and VX-809 is 3 uM and ivacaftor is 1 uM.

[2] = test system: CFTR, genotype 3849 + 10kb C > T/N1303K; assay: CFTR activity by mutation type, 3849 + 10kb C > T/N1303K (Table 7); assay type: cell-based, human

T2 sequence (P13569 with tags, fused parts or gaps DEL508-508): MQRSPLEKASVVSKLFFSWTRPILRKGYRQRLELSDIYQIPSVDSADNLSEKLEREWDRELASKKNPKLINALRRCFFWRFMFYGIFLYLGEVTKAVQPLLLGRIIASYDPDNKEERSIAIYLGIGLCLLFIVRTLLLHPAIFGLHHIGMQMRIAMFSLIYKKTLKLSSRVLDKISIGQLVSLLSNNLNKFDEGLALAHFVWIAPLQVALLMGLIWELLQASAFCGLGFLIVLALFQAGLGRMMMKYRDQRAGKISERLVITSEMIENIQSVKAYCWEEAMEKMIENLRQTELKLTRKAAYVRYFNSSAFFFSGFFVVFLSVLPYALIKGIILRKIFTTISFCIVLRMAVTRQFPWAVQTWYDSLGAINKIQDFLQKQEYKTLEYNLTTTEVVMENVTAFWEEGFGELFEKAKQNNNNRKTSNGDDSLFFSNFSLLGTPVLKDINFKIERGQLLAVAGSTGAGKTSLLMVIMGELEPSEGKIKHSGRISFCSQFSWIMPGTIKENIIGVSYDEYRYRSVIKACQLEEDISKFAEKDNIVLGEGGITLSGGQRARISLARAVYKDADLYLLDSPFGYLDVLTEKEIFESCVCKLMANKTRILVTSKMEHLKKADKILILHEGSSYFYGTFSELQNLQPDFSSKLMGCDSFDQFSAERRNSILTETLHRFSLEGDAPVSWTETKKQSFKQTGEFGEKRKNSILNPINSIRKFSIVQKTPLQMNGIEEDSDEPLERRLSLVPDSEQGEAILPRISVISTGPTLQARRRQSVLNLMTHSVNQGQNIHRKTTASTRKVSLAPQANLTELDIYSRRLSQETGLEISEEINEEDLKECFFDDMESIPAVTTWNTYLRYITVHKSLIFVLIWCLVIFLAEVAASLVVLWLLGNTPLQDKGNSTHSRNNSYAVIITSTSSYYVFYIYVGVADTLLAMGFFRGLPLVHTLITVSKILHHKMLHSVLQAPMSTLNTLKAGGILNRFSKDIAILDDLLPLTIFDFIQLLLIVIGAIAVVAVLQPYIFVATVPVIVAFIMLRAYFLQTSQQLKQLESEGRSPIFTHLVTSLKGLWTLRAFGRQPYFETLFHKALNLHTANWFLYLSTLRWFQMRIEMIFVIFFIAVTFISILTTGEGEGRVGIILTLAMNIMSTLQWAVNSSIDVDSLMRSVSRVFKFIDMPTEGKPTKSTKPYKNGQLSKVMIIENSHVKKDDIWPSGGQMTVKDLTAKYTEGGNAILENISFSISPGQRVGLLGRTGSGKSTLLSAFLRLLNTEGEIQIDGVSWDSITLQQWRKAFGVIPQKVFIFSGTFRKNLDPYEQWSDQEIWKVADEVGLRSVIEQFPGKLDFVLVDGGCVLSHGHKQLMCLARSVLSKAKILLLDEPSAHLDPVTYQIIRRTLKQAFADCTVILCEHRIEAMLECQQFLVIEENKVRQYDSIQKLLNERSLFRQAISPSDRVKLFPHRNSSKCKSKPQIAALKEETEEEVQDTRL
T1 sequence (P13569 with tags, fused parts or gaps DEL508-508): as above

C[C@@H](O)c1nnc([C@H]2C[C@H](NC(=O)c3cc(-c4ccccc4)no3)C2)o1 [Example 6, N-(trans-3-(5-((R)-1-hydroxyethyl)-1,3,4-oxadiazol-2-yl)cyclobutyl)-3-phenylisoxazole-5-carboxamide]
Ussing: activity of compound with VX-809, % of VX-809 (ΔF508-CFTR): ## (## indicates activity ≥200% of VX-809 (3 uM) with compound at 10 uM and VX-809 at 3 uM)
Combination with ivacaftor and VX-661, activity ([1]; compound A 10uM + ivacaftor 1uM + VX-661 3 uM, relative activity of 100% = ivacaftor and VX-661): ++++ (++++ indicates activity at 10uM of >150% of the indicated relative activity treatment)
Combination with ivacaftor and lumacaftor, activity ([1]; compound A 10uM + ivacaftor 1uM + lumacaftor 3 uM, relative activity of 100% = ivacaftor and lumacaftor): ++++ (++++ indicates activity at 10uM of >150% of the indicated relative activity treatment)
Stand Alone activity ([1]; compound A 10uM, relative activity of 100% = ivacaftor (1uM) and lumacaftor (3 uM)): + (+ indicates activity at 10uM of 15% to <50% of the indicated relative activity treatment)
Combination with ivacaftor, activity ([2]; compound A 10uM + ivacaftor 1uM, relative activity of 100% = ivacaftor): +++ (+++ indicates activity at 10uM of 100% to <150% of the indicated relative activity treatment)
Stand Alone activity ([2]; compound A 10uM, relative activity of 100% = ivacaftor (1uM)): ++ (++ indicates activity at 10uM of 50% to <100% of the indicated relative activity treatment)
